The values that follow come from patent publication US8846704B2, “Thiopyrimidine-based compounds and uses thereof” (YM Biosciences Austraila Pty Ltd, priority 2007, dated 2014).

Each structure is given as a SMILES string.

In the experiment the target is T1, BaF3 TELJAK3 cells (Homo sapiens, UniProt P52333).
T1 construct: fused on or other part: TEL (ETV6) N-terminal part, coding nucleotides 1-487, serves as the oligomerising partner; It is fused through a Sal I site to the JAK3 kinase domain and expressed from pTRE2 in BaF3 cells bearing pTET-off; P41212 (Transcription factor ETV6)
T1 sequence (P52333 1-1124): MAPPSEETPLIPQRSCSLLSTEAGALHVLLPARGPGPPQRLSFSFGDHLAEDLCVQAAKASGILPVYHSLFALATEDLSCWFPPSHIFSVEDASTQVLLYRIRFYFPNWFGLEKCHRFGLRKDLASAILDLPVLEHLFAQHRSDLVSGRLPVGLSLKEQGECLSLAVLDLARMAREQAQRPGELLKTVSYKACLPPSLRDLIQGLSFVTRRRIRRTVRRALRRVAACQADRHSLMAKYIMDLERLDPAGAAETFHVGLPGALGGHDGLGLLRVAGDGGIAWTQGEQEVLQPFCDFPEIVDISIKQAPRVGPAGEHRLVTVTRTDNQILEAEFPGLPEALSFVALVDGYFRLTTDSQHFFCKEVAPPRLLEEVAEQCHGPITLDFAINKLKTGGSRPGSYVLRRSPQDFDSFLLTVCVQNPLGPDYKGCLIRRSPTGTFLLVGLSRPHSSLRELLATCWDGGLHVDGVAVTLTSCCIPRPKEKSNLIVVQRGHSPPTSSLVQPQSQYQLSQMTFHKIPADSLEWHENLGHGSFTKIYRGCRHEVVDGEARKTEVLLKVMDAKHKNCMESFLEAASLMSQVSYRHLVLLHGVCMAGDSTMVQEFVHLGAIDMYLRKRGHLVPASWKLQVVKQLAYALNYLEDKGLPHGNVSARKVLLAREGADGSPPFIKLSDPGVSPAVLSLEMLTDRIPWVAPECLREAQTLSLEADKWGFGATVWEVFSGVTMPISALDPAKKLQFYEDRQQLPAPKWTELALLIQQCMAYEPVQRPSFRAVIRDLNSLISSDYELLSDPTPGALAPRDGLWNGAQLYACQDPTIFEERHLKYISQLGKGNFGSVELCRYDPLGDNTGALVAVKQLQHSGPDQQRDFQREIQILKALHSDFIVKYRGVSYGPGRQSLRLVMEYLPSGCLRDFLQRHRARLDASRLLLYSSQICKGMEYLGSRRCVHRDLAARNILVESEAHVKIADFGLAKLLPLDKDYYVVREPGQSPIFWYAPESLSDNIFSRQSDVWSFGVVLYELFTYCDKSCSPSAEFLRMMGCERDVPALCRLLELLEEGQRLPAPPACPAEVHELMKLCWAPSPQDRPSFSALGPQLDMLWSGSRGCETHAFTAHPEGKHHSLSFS
Description: Cellular screening, BaF3 TEL:JAK3 cells, Alamar Blue. It counts as cell-based. The conditions noted are these: 40 hr, read-out: BafT_J3 IC50_nM. The method, boiled down: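 Alamar Blue signal at 544 nm, developed for 4–6 h, measured viability after 40 h of compound treatment at 37 °C, 5% CO2. Cells were growth-factor-independent BaF3 lines transfected with a TEL/JAK3 kinase-domain fusion under tet-off control. They were cultured in DMEM, 10% Tet-approved FBS, lacking WEHI 3B conditioned medium.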
With `C=CC(=O)Nc1cccc(Nc2nccc(SC)n2)c1` [Compound 7, N-(3-(4-(methylthio)pyrimidin-2-ylao)phenyl)acrylamide], the GI50 was less than 5 µM.

On to `Cc1cnc(Nc2ccc(N3CCOCC3)cc2)nc1Sc1ccc(N2C(=O)COCC2=O)cc1` [Compound 190, 4-(4-(5-methyl-2-(4-morpholinophenylao)pyrimidin-4-ylthio)phenyl)morpholine-3,5-dione], for which the GI50 is more than 20 µM.

For `Cc1cnc(Nc2ccc(O)cc2)nc1Sc1ccc(N)cc1` [Compound 191, 4-(4-(4-aophenylthio)-5-methylpyrimidin-2-ylao)phenol], the GI50 is less than 5 µM.

As to `Cc1cnc(Nc2cccc(S)c2)nc1Sc1ccc(NC(=O)CCl)cc1` [Compound 195, 2-chloro-N-(4-(2-(3-mercaptophenylao)-5-methylpyrimidin-4-ylthio)phenyl)acetamide], the GI50 was less than 20 µM.

For `Cc1cnc(Nc2ccc(N3CCOCC3)cc2)nc1Sc1ccc(N2CCSCC2=O)cc1` [Compound 197, 4-(4-(5-methyl-2-(4-morpholinophenylao)pyrimidin-4-ylthio)phenyl)thiomorpholin-3-one], the GI50 was more than 20 µM.

Take `N#Cc1c(N)ncn1Cc1cccc(Sc2ccnc(Nc3ccc(N4CCOCC4)cc3)n2)c1` [Compound 199, 4-ao-1-(3-(2-(4-morpholinophenylao)pyrimidin-4-ylthio)benzyl)-1H-imiazole-5-carbonitrile]: the GI50 is less than 20 µM.

With `N#Cc1ncn(Cc2ccc(Sc3ccnc(Nc4ccc(N5CCOCC5)cc4)n3)cc2)c1N` [Compound 202, 5-ao-1-(4-(2-(4-morpholinophenylao)pyrimidin-4-ylthio)benzyl)-1H-imidazole-4-carbonitrile], the GI50 was less than 5 µM.

Regarding `N#Cc1c(N)ncn1Cc1ccc(Sc2ccnc(Nc3ccc(N4CCOCC4)cc3)n2)cc1` [Compound 203, 4-ao-1-(4-(2-(4-morpholinophenylao)pyrimidin-4-ylthio)benzyl)-1H-imidazole-5-carbonitrile], the GI50 was less than 1 µM.

On to `c1cc(Sc2ccc(Cn3cncn3)cc2)nc(Nc2ccc(N3CCOCC3)cc2)n1` [Compound 204, 4-(4-((1H-1,2,4-triazol-1-yl)methyl)phenylthio)-N-(4-morpholinophenyl)pyrimidin-2-ae], for which the GI50 was less than 20 µM.

In the case of `NC(=O)c1ccc(Sc2ccnc(Nc3ccc(N4CCOCC4)cc3)n2)cc1` [Compound 207, 4-(2-(4-morpholinophenylao)pyrimidin-4-ylthio)benzamide], the GI50 was more than 20 µM.

Take `N#CCc1ccc(Sc2ccnc(Nc3ccc(N4CCOCC4)cc3)n2)cc1` [Compound 210, 2-(4-(2-(4-morpholinophenylao)pyrimidin-4-ylthio)phenyl)acetonitrile]: the GI50 was more than 20 µM.

As to `Cc1cnc(Nc2ccc(N3CCOCC3)cc2)nc1Sc1cccc(CO)c1` [Compound 212, (3-(5-methyl-2-(4-morpholinophenylao)pyrimidin-4-ylthio)phenyl)methanol], the GI50 is more than 20 µM.

Take `CON(C)C(=O)c1ccc(Sc2nc(Nc3ccc(N4CCOCC4)cc3)ncc2C)cc1` [Compound 218, N-methoxy-N-methyl-4-(5-methyl-2-(4-morpholinophenylao)pyrimidin-4-ylthio)benzamide]: the GI50 is less than 20 µM.

Regarding `Cc1cnc(Nc2ccc(N3CCOCC3)cc2)nc1Sc1ccc(C=O)cc1` [Compound 219, 4-(5-methyl-2-(4-morpholinophenylao)pyrimidin-4-ylthio)benzaldehyde], the GI50 was less than 5 µM.

For `Cc1cnc(Nc2ccc(N3CCOCC3)cc2)nc1Sc1ccc(CO)cc1` [Compound 220, (4-(5-methyl-2-(4-morpholinophenylao)pyrimidin-4-ylthio)phenyl)methanol], the GI50 is less than 5 µM.

`Cc1cnc(Nc2ccc(N3CCOCC3)cc2)nc1Sc1ccc(CC#N)cc1` [Compound 222, 2-(4-(5-methyl-2-(4-morpholinophenylao)pyrimidin-4-ylthio)phenyl)acetonitrile]: the GI50 is more than 20 µM.

`Cc1cnc(Nc2ccc(N3CCOCC3)cc2)nc1Sc1ccc(C(C#N)N2CCOCC2)cc1` (stereo not shown) [Compound 223, 2-(4-(5-methyl-2-(4-morpholinophenylao)pyrimidin-4-ylthio)phenyl)-2-morpholinoacetonitrile]: the GI50 was less than 20 µM.

Take `Cc1cnc(Nc2ccc(N3CCOCC3)cc2)nc1Sc1ccc(C(=O)N2CCCC2)cc1` [Compound 224, (4-(5-methyl-2-(4-morpholinophenylao)pyrimidin-4-ylthio)phenyl)(pyrrolidin-1-yl)methanone]: the GI50 is more than 20 µM.

`Cc1cnc(Nc2ccc(N3CCOCC3)cc2)nc1Sc1ccc(C(C#N)N2CCN(C)CC2)cc1` (stereo not shown) [Compound 225, 2-(4-(5-methyl-2-(4-morpholinophenylao)pyrimidin-4-ylthio)phenyl)-2-(4-methylpiperazin-1-yl)acetonitrile]: the GI50 is less than 5 µM.

Turning to `Cc1cnc(Nc2cccc(NS(C)(=O)=O)c2)nc1Sc1ccc(CO)cc1` [Compound 226, N-(3-(4-(4-(hydroxymethyl)phenylthio)-5-methylpyrimidin-2-ylao)phenyl)methanesulfonamide], the GI50 is less than 5 µM.

Turning to `Cc1cnc(Nc2ccc(N3CCOCC3)cc2)nc1Sc1ccc(NC2CCOC2=O)cc1` (stereo not shown) [Compound 228, 3-(4-(5-methyl-2-(4-morpholinophenylao)pyrimidin-4-ylthio)phenylao)dihydrofuran-2(3H)-one], the GI50 was more than 20 µM.

On to `Cc1cnc(Nc2ccc(N3CCOCC3)cc2)nc1Sc1ccc(NC(=O)CO)cc1` [Compound 229, 2-hydroxy-N-(4-(5-methyl-2-(4-morpholinophenylao)pyrimidin-4-ylthio)phenyl)acetamide], for which the GI50 is less than 20 µM.
